Consider 12 compounds from patent US20230257374A1, “NOVEL KRAS G12C PROTEIN INHIBITOR, PREPARATION METHOD THEREFOR, AND USE THEREOF” (INNOVENT BIOLOGICS (SUZHOU) CO., LTD., priority 2019, published 2023).

Usually Papp A→B stands for the apparent permeability from the apical to the basolateral side of a cell layer. Broadly, the Papp B→A is how fast a substance crosses the layer from the basolateral side. Broadly, the half-life is the time needed for the level to fall by half in the phase considered. Broadly, the microsomal CLint is the rate of metabolic loss divided by the concentration. Broadly, the IC50 is the concentration needed to halve the response being measured. As usually defined, the efflux ratio is a quotient of directional permeabilities that is used to spot active efflux.

A short description of data set [1]: in vitro. As to conditions: human, Caco-2, pH 7.4. How it is done:
Drug penetration test: the Transwell culture plate was retrieved from the incubator. […] All samples were prepared in double parallel. The integrity of the cell monolayer membrane after 2 hours of incubation was assessed using leakage of fluorescein; fluorescein stock solution was diluted with HBSS (25 mM HEPES, pH 7.4) to a final concentration of 100 μM. 100 μL of fluorescein solution was added to each well of the upper Transwell plate and 300 μL of HBSS (25 mM HEPES, pH 7.4) was added to each well of the lower receiving plate; after incubation at 37° C. for 30 min, 80 μL of the solution was pipetted from the upper and lower layers of each well to a new 96-well plate.
The apparent permeability coefficients (Papp, unit: cm/s) of the compounds in Caco-2 cells were calculated from the specific concentrations at the acceptor and donor ends, and the specific calculation formula is as follows: […]
where VA represents the volume of the acceptor end solution (0.3 mL for Ap→Bl, 0.1 mL for Bl→Ap); Area represents the area of the Transwell-96 well plate (0.143 cm^2); time represents the incubation time (unit: s); [drug]acceptor represents the drug concentration (ratio of peak area to internal standard area) at the acceptor end; [drug]initial, donor represents the drug concentration at the donor end (ratio of peak area to internal standard area).
The efflux ratio was calculated as follows: […]
where Papp (B-A) represents the apparent permeability coefficient from base end to top end; Papp (A-B) represents the apparent permeability coefficient from top end to base end.

The nature of data set [2]: in vitro. As to conditions: microsomes, pH 7.4. On the procedure:
To examine the in vitro metabolic stability of the test compounds in liver microsomes of different species, representative compounds were selected, and their stability was evaluated by measuring the concentration of the test compounds in the incubation system using LC/MS/MS and calculating their intrinsic clearance in the microsome system.
The method is specifically as follows: each compound was first dissolved in DMSO to prepare a 200 μM working solution and added to the system solution at the time of testing to form a solution with a final concentration of 1 μM.
The microsomes were stored in a −80° C. freezer.
Preparation of incubation system: an incubation system was prepared as described in the table below.
25 μL, of NADPH or phosphate buffered saline was transferred to the incubation system described above, and 2 μL, of 200 μM of the test compound or verapamil was added. The sample with NADPH added was prepared in duplicate; the NADPH negative sample was prepared in single parallel. 30 μL, of suspension was taken at 0.5, 5, 15, 30 and 60 minutes. The reaction system was terminated by adding 180 μL, of acetonitrile containing an internal standard and vortexed for 10 min. […] 100 μL, of the supernatant was transferred to a feeding plate, and 100 μL, of purified water was added. The mixture was well mixed for UPLC-MS/MS analysis.
The results based on the data were obtained by calculation according to the peak area ratio, and the peak area was detected through an extracted ion chromatogram.
The slope value (k) was determined by linear fitting of the natural logarithm of drug elimination percentage over time.

For data set [3], the target named is T1, KRAS G12C protein (Homo sapiens, UniProt P01116, G12C).
T1 construct: H358 cells (ATCC, CRL-5807) expressing KRAS G12C protein; host or cells: H358 (NCI-H358) cells
T1 sequence (P01116 1-188 isoform P01116-2 G12C): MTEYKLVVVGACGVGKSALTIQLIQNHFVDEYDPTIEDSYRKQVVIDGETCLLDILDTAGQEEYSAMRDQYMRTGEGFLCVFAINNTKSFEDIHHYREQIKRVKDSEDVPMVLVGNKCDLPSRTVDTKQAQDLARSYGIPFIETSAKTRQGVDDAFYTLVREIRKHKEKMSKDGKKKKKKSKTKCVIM
Nature of the data set: ERK protein phosphorylation assay (p-ERK) in H358 cells. The data set is classed as cell-based. Also on record: scale not given here. As to conditions: H358 cells expressing KRAS G12C protein, 3 h incubation with compound; read-out: IC50, inhibiting phosphorylation of KRAS G12C protein-mediated downstream signaling (p-ERK). How it is done: The cells were cultured in a 5% CO2 cell incubator for 16 h. The serially diluted compound was added to the cell medium with Echo550 at a final DMSO concentration of 0.5%, and the incubation was continued for 3 h. Then 8% paraformaldehyde (Solarbio, P1112) was added at 40 μL/well, followed by incubation at room temperature for 20 min. After one washing with PBS, cold 100% methanol was added at 40 μL/well for permeabilization for 10 min. […] Washing with PBST was performed 3 times, with 2 min of incubation for each washing. […] Washing with PBST was performed 3 times, with 2 min of incubation for each washing. Finally, the cell culture plate was inverted and centrifuged at 1000 rpm for 1 min, after which fluorescence signals were read using Odyssey CLx.

Data set [4] in a line: Stability test in human plasma.
Experimental: To examine the stability of the test compounds in plasma, representative compounds were selected for evaluation.
Preparation of stock solution: a test compound was dissolved in DMSO to prepare a 1 mM stock solution for later use; Propantheline Bromide was dissolved in acetonitrile to prepare a 1 mM stock solution as a positive control for later use.
To each well was added 2 μL of the stock solution of the test compound and the stock solution of the positive control such that the final concentrations were 5 KM and the concentration of the organic solvent was 0.5%. Each compound was prepared in duplicate, followed by incubation at 37° C. 50 μL of samples were taken from the reaction samples in equal amounts at 0, 30, 60, 120, 180 and 240 minutes, and 450 μL of cold acetonitrile containing an internal standard was added to terminate the reaction. […] 100 μL of the supernatants were transferred to a new plate, dilute with ultra-pure water, and analyzed by LC-MS/MS.
Data results were calculated according to peak area ratios.
The percentage of remaining compound for each time point was calculated as follows:
Remaining percentagemin(%)=peak area ratiosmin/peak area ratiomin×100%
where peak area ratios represents the peak area ratio of the test compound to the internal standard compound at t min; peak area ratiomin represents the peak area ratio of the test compound to the internal standard compound at 0 min (initial).

In data set [1], `C=CC(=O)N1CCN(c2nc(=O)n(-c3c(C)ccnc3C(C)C)c3nc(-c4c(O)cccc4F)c(F)cc23)[C@@H](C)C1` [AMG510] came in with a Papp A→B at 2 h, 10 μM of 0.6 ×10⁻⁶ cm/s and a Papp B→A at 2 h, 10 μM of 27.4 ×10⁻⁶ cm/s.

For `[2H]C([2H])([2H])N1CCC[C@H]1COc1nc2c(c(N3CCN(C(=O)C(=C)F)[C@@H](CC#N)C3)n1)CCN(c1cccc3cccc(Cl)c13)C2` [Compound 18, 2-((S)-4-(7-(8-chloronaphthalen-1-yl)-2-(((S)-1-(methyl-d3)pyrrolidin-2-yl)methoxy)-5,6,7,8-tetrahydropyrido[3,4-d]pyrimidin-4-yl)-1-(2-fluoroacryloyl)piperazin-2-yl)acetonitrile], in data set [2] (ICR (CD-1), mouse), the half-life at 1 μM is 12.3 min and the intrinsic metabolic clearance (microsomal CLint) at 1 μM was found to be 113 µL/min/mg. In data set [2] (human), this compound showed a half-life at 1 μM of 19.3 min and a microsomal CLint at 1 μM of 72 µL/min/mg.

For the compound `[2H]C([2H])([2H])CN1CCC[C@H]1COc1nc2c(c(N3CCN(C(=O)C=C)[C@@H](CC#N)C3)n1)CCN(c1cccc3cccc(Cl)c13)C2` [Compound 34, 2-((S)-1-acryloyl-4-(7-(8-chloronaphthalene-1-yl)-2-(((S)-1-(ethyl-2,2,2-d3)pyrrolidin-2-yl)methoxy)-5,6,7,8-tetrahydropyrido[3,4-d]pyrimidin-4-yl)piperazin-2-yl)acetonitrile], the IC50 in data set [3] was below 1000 nM.

Turning to `[2H]C([2H])([2H])C([2H])([2H])N1CCC[C@H]1COc1nc2c(c(N3CCN(C(=O)C=C)[C@@H](CC#N)C3)n1)CCN(c1cccc3cccc(C)c13)C2` [Compound 35, 2-((S)-1-acryloyl-4-(2-(((S)-1-(ethyl-d5)pyrrolidin-2-yl)methoxy)-7-(8-methylnaphthalen-1-yl)-5,6,7,8-tetrahydropyrido[3,4-d]pyrimidin-4-yl)piperazin-2-yl)acetonitrile], in data set [3], the IC50 is below 1000 nM.

As to `[2H]C([2H])([2H])C([2H])([2H])N1CCC[C@H]1COc1nc2c(c(N3CCN(C(=O)C=C)[C@@H](CC#N)C3)n1)CCN(c1cccc3cccc(Cl)c13)C2` [Compound 36, 2-((S)-1-acryloyl-4-(7-(8-chloronaphthalene-1-yl)-2-(((S)-1-(ethyl-d5)pyrrolidin-2-yl)methoxy)-5,6,7,8-tetrahydropyrido[3,4-d]pyrimidin-4-yl)piperazin-2-yl)acetonitrile], the IC50 in data set [3] was below 1000 nM.

Take `[2H]C([2H])([2H])C([2H])(N1CCC[C@H]1COc1nc2c(c(N3CCN(C(=O)C=C)[C@@H](CC#N)C3)n1)CCN(c1cccc3cccc(C)c13)C2)C([2H])([2H])[2H]` [Compound 37, 2-((S)-1-acryloyl-4-(7-(8-methylnaphthalen-1-yl)-2-(((S)-1-(isopropyl-d7)pyrrolidin-2-yl)methoxy)-5,6,7,8-tetrahydropyrido[3,4-d]pyrimidin-4-yl)piperazin-2-yl)acetonitrile]: the IC50 in data set [3] was below 1000 nM.

`[2H]C([2H])([2H])C([2H])(N1CCC[C@H]1COc1nc2c(c(N3CCN(C(=O)C=C)[C@@H](CC#N)C3)n1)CCN(c1cccc3cccc(Cl)c13)C2)C([2H])([2H])[2H]` [Compound 38, 2-((S)-1-acryloyl-4-(7-(8-chloronaphthalene-1-yl)-2-(((S)-1-(isopropyl-d7)pyrrolidin-2-yl)methoxy)-5,6,7,8-tetrahydropyrido[3,4-d]pyrimidin-4-yl)piperazin-2-yl)acetonitrile]: the IC50 in data set [3] is below 1000 nM.

Regarding `C=CC(=O)N1CCN(c2nc(OC[C@@H]3CCCN3[14CH3])nc3c2CCN(c2cccc4cccc(C)c24)C3)C[C@@H]1CC#N` [Compound 39, 2-((S)-1-acryloyl-4-(2-(((S)-1-(methyl-^14C)pyrrolidin-2-yl)methoxy)-7-(8-methylnaphthalen-1-yl)-5,6,7,8-tetrahydropyrido[3,4-d]pyrimidin-4-yl)piperazin-2-yl)acetonitrile], in data set [3], the IC50 is below 1000 nM.

Turning to `C[C@H]1O[C@@H](O[C@H]2[C@@H](O)C[C@H](O[C@H]3[C@@H](O)C[C@H](O[C@H]4CC[C@@]5(C)[C@H](CC[C@@H]6[C@@H]5C[C@@H](O)[C@]5(C)[C@@H](C7=CC(=O)OC7)CC[C@]65O)C4)O[C@@H]3C)O[C@@H]2C)C[C@H](O)[C@@H]1O` [Digoxin], in data set [1], the Papp A→B at 2 h, 10 μM came out at 0.25 ×10⁻⁶ cm/s; the apparent permeability from basolateral to apical (Papp B→A) at 2 h, 10 μM turned out to be 16.4 ×10⁻⁶ cm/s; the efflux ratio at 2 h, 10 μM was determined as 65.2.

As for `C=C(F)C(=O)N1CCN(c2nc(OC[C@@H]3CCCN3C)nc3c2CCN(c2cccc4cccc(Cl)c24)C3)C[C@@H]1CC#N` [MRTX849, reference compound], in data set [2] (ICR (CD-1), mouse), the half-life at 1 μM was 10 min and the microsomal CLint at 1 μM came to 139 µL/min/mg. For the same compound, in data set [2] (human), the half-life at 1 μM turned out to be 19.8 min and the microsomal CLint at 1 μM is 70.2 µL/min/mg.

As for `COCCc1ccc(OCC(O)CNC(C)C)cc1` (centres unmarked) [Metoprolol], in data set [1], the Papp A→B at 2 h, 10 μM was found to be 22.6 ×10⁻⁶ cm/s; the Papp B→A at 2 h, 10 μM came out at 19.5 ×10⁻⁶ cm/s; the efflux ratio at 2 h, 10 μM is 0.86.

Turning to `CC(C)[N+](C)(CCOC(=O)C1c2ccccc2Oc2ccccc21)C(C)C` [Propantheline Bromide, reference compound], the “Remaining percentage (%) 0 min” value in data set [4] (human plasma, 37° C., 0 min) came out at 100.00%. In data set [4] (human plasma, 37° C., 30 min), the “Remaining percentage (%) 30 min” value is on record as 33.35%. In data set [4] (human plasma, 37° C., 60 min), the “Remaining percentage (%) 60 min” value stood at 7.71%. Moreover, in data set [4] (human plasma, 37° C., 120 min), the “Remaining percentage (%) 120 min” value was 0.15%. The “Remaining percentage (%) 180 min” value in data set [4] (human plasma, 37° C., 180 min) is listed as “BLOD”. Also, the “Remaining percentage (%) 240 min” value in data set [4] (human plasma, 37° C., 240 min) is listed as “BLOD”. In addition, the half-life at 5 μM in data set [4] (human, plasma) amounted to 19 min.
